{
  "source": "patent EP0103895A2",
  "about": "“Novel hydroxylamine derivatives, production and use thereof” (MEIJI SEIKA KABUSHIKI KAISHA, priority 1982, dated 1984)",
  "key": {"[1]": {"tested_on": "swine whipworm (Trichuris suis)", "assay": "Test of anthelmintic effect in naturally infected pigs, E.P.G. on 7th day: swine whipworm (Test Examples A9, B9, C9, D9)", "assay_type": "in vivo", "method": "(§1) Six pigs infected with swine roundworm and swine whipworm (naturally infected pigs) were employed in groups each of two pigs.\n(§2) As a control, only gelatin capsules were administered orally to the two pigs.\n(§3) Before administration and on the 7th day after. administration, fecal matter testing was conducted to calculate the E.P.G., and the anthelmintic effect was judged by the changing of the E.P.G. to negative'.\n(§4) 50 mg of each compound was placed in a gelatin capsule per 1 Kg of body weight and administered orally to each of the two pigs. As control, only gelatin capsules were administered orally to two pigs.\n(§5) 30 mg of each compound was placed in a gelatin capsule per 1 Kg of body weight and administered orally to each of the two pigs. As control, only gelatin capsules were administered orally to two pigs."}, "[2]": {"tested_on": "fowl roundworm (Ascaridia galli)", "assay": "Anthelmintic test in chickens artificially infected with fowl roundworm, single oral dose in gelatin capsule, worm bodies counted within 48 hours (Test Examples A1, B1, C1, D1)", "assay_type": "in vivo", "conditions": "Ascaridia galli, po, 48 h, read-out: Anthelmintic effect after 48 hours; for inhibition in vivo at 50 mg/kg: 50 mg/Kg orally in gelatin capsule", "how_it_was_run": "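Anthelmintic percentage derived from counts of worms passed within 48 h plus worms left in the intestine after killing at 48 h. Infection confirmed by fecal examination in three-bird groups; compound given orally once in gelatin capsules at 10/20 (A1, B1), 30/50 (C1) or 15/30 (D1) mg/kg.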"}, "[3]": {"tested_on": "swine roundworm (Ascaris suum)", "assay": "Test of anthelmintic effect in naturally infected pigs, E.P.G. on 7th day: swine roundworm (Test Examples A9, B9, C9, D9)", "assay_type": "in vivo", "conditions": "for anthelmintic effect: pigs infected with swine roundworm and swine whipworm (statement covers both), one administration of 50 mg/Kg; for Change of E.P.G. 7th day: Ascaris suum", "method": "as §1, §2, §3, §4, §5"}, "[4]": {"tested_on": "fowl roundworm (As. galli)", "assay": "Anthelmintic test in chickens artificially infected with fowl roundworm, compound added to feed, E.P.G. and worm count up to 21st day (Test Examples A2, B2, C2, D2)", "assay_type": "in vivo, Ascaridia galli", "conditions": "Ascaridia galli, po, 504 h, chickens, worm count on 21st day, one value per chicken, read-out: Anthelmintic effect; for inhibition in vivo at 20 ppm: 20 ppm added to feed; for inhibition in vivo at 50 ppm: 50 ppm added to feed"}, "[5]": {"tested_on": "Diphyllobothrium erinacei", "assay": "Test of anthelmintic effect against Diphyllobothrium erinacei (tapeworm) in experimentally infected cats (Test Examples A5, B5, C5, D5)"}, "[6]": {"tested_on": "Liver fluke; Fasciola hepatica (F. hepatica)", "assay": "Test of anthelmintic effect against rat infected experimentally with liver fluke (Test Examples A11, B11, C11, D11)", "assay_type": "in vivo", "text": "Twenty-eight (28) rats were employed in fourteen groups each of two rats, each rat being infected with 5 metacercariae of Liver fluke; Fasciola he^patica (F.. hepatica) and confirmed to have worm eggs on the 75th day after infection according to fecal matter testing.\nJudgement of the effect was made by the presence or absence of the worm gees in the fecal matter on the 21st day after the last administration and by examination according to autopsis as to whether the worm bodies were dead or alive in the liver.\nThe same as that in Test Example All, but eight (8) rats were employed by grouping them into groups each of two rats, each rat being infected with 5 metacercariae of liver fluke and confirmed to have fluke eggs on the 75th day after infection according to fecal matter testing.\nThe compounds provided for the tests were Compound Nos. Bl, B8 and B19.\nThe same as that in Test Example All, but six (6) rats were employed by grouping them into groups each of two rats, each rat being infected with 5 metacercariae of Fasciola hepatica and confirmed to have worm eggs on the 75th day after infection according to fecal matter testing.\nThe compounds provided for the tests were Compound Nos. C2 and C6.\nThe same as that in Test Example All, but the compounds provided for tests were Compound Nos. D14, D15 and D16."}, "[7]": {"tested_on": "canine filaria; Dirofilaria immitis", "assay": "Test of anthelmintic effect against canine filaria in naturally infected dogs, subcutaneous injection, microfilaria in blood and adult filaria at autopsy (Test Examples A10, B10, C10, D10)", "assay_type": "in vivo", "conditions": "for inhibition in vivo at 20 mg/kg: Dirofilaria immitis, sc, 240 h"}, "[8]": {"conditions": "pigs, 50 mg/Kg orally once, one value per pig"}, "[9]": {"conditions": "chickens, 30 mg/Kg orally in gelatin capsule, one value per chicken (No.1-3)"}, "[10]": {"conditions": "chickens, one value per chicken (No.1-3)"}, "[11]": {"conditions": "pig, 20 mg/Kg, one administration"}},
  "note": "Several values for one entry are separate records, joined by “and”; a condition that tells them apart may be missing. Equal entries are not always repeated. Where two headings read alike, the source gives them in different places.",
  "data": [
    {"smiles": "C=CCN(OCCCC)C(=O)c1ccccc1", "note": "[Compound B19, N-allyl-N-benzoyl-0-butylhydroxylamine]", "values": [
      {"measurement": "Change of E.P.G. 7th day", "setting": "[1]; [8]", "result": 0, "unit": "E.P.G."},
      {"measurement": "inhibition in vivo at 30 mg/kg", "setting": "[2]; [9]", "result": 100, "unit": "%"},
      {"measurement": "inhibition in vivo at 50 mg/kg", "setting": "[2]; [10]", "result": 100, "unit": "%"},
      {"measurement": "anthelmintic effect", "setting": "[3]", "result": "marked anthelmintic effect"},
      {"measurement": "Change of E.P.G. 7th day", "setting": "[3]; [8]", "result": 0, "unit": "E.P.G."},
      {"measurement": "inhibition in vivo at 20 ppm", "setting": "[4]", "result": "80 to 90", "unit": "%"},
      {"measurement": "inhibition in vivo at 50 ppm", "setting": "[4]", "result": 100, "unit": "%"},
      {"measurement": "Number of worm bodies remaining in enteron", "setting": "[5]; cats infected with 5 plerocercoids, 50 mg/Kg x 5 times orally, autopsy ten days after administration, one value per cat", "result": 0},
      {"measurement": "Worm egg detection on 10th day after administration", "setting": "[5]; cats, 50 mg/Kg x 5 orally, one value per cat (Table B7)", "result": "-"},
      {"measurement": "anthelmintic effect", "setting": "[5]; cats, 5 continuous administrations of 50 mg/Kg", "result": "marked anthelmintic effects"},
      {"measurement": "Condition of fluke body", "setting": "[6]; rat, 50 mg/Kg x 5", "result": "dead"},
      {"measurement": "Presence or absence of fluke egg in fecal matter On 21st day after the last administration", "setting": "[6]; rat, 50 mg/Kg x 5", "result": "-"},
      {"measurement": "anthelmintic effect", "setting": "[6]; rats, five administrations in a dose of 50 mg/Kg each", "result": "marked antihelmintic effect"}
    ]},
    {"smiles": "C#CCNOCC.Cl", "note": "[Compound D10, N-propargyl-O-ethylhydroxylamine hydrochloride]", "values": [
      {"measurement": "Change of E.P.G. 7th day", "setting": "[1]; [11]", "result": 0},
      {"measurement": "inhibition in vivo at 15 mg/kg", "setting": "[2]; chicken, 15 mg/Kg oral in gelatin capsule, chickens No.1-3", "result": 100, "unit": "%"},
      {"measurement": "inhibition in vivo at 30 mg/kg", "setting": "[2]; chicken, 30 mg/Kg oral in gelatin capsule, chickens No.1-3", "result": 100, "unit": "%"},
      {"measurement": "Change of E.P.G. 7th day", "setting": "[3]; [11]", "result": 0},
      {"measurement": "inhibition in vivo at 20 mg/kg", "setting": "[7]; dog, 20 mg/Kg x 3, subcutaneous injection, read-out: Effect on adult filaria: Percent of worms killed", "result": 54, "unit": "%"},
      {"measurement": "inhibition in vivo at 20 mg/kg", "setting": "[7]; dogs, administration of 20 mg/Kg repeated three times, given as about 50% or more, read-out: anthelmintic effect against adult filaria", "result": "≥ 50", "unit": "%"},
      {"measurement": "Number of microfilaria/20µl On 10th day after the administration", "setting": "[7]; dog, 20 mg/Kg x 3, subcutaneous injection", "result": "0 /20µl"},
      {"measurement": "Effect on adult filaria: Number of worms killed/ Total parasite", "setting": "[7]; dog, 20 mg/Kg x 3, subcutaneous injection, hydrochloride, 20 mg/kg", "result": "18/33 and 20/28"},
      {"measurement": "anthelmintic effect against microfilaria (mf)", "setting": "[7]; dogs, administration of 20 mg/Kg repeated three times", "result": "marked anthelmintic effect"}
    ]},
    {"smiles": "C=CCN(OC)C(=O)c1ccccc1", "note": "[Compound B5, N-allyl-N-benzoyl-O-methylhydroxylamine]", "values": [
      {"measurement": "Change of E.P.G. Before administration", "setting": "[1]; pigs, 50 mg/Kg orally once, baseline, one value per pig, 50 mg/kg", "result": "2,100 E.P.G. and 1,300 E.P.G."},
      {"measurement": "Change of E.P.G. 7th day", "setting": "[1]; [8]", "result": 0, "unit": "E.P.G."},
      {"measurement": "inhibition in vivo at 30 mg/kg", "setting": "[2]; [9]", "result": 100, "unit": "%"},
      {"measurement": "inhibition in vivo at 50 mg/kg", "setting": "[2]; [10]", "result": 100, "unit": "%"},
      {"measurement": "anthelmintic effect", "setting": "[3]", "result": "marked anthelmintic effect"},
      {"measurement": "Change of E.P.G. 7th day", "setting": "[3]; [8]", "result": 0, "unit": "E.P.G."},
      {"measurement": "inhibition in vivo at 20 ppm", "setting": "[4]", "result": "80 to 90", "unit": "%"},
      {"measurement": "inhibition in vivo at 50 ppm", "setting": "[4]", "result": 100, "unit": "%"}
    ]}
  ]
}
